pIC50: −log10 of the molar value.
The molecules below were run against TNAP (Homo sapiens (Human), UniProt P05186) (assay: TNAP (PPi) inhibition assay, pyrophosphate as substrate).
Assay type: biochemical
In short: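 Enzyme source was conditioned serum-free medium from COS-1 cells transiently expressing tagged human TNAP, dialyzed against TBS with MgCl2/ZnCl2. Activity on natural substrate PPi at pH 7.4 read as liberated phosphate (Biomol Green).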

pIC50	SMILES
> 7.00	COc1ccc(OC)c(S(=O)(=O)Nc2cncc(-c3ccc(F)cc3)c2)c1 [Example III-16, N-[5-(4-Fluoro-phenyl)-pyridin-3-yl]-2,5-dimethoxy-benzenesulfonamide]
< 6.00	COc1ccc(Br)cc1S(=O)(=O)Nc1ccc(N2CCCCC2)nc1 [Example VIII-17, 5-Bromo-2-methoxy-N-(3,4,5,6-tetrahydro-2H-[1,2′]bipyridinyl-5′-yl)-benzenesulfonamide]
> 7.00	COc1ccc(Cl)cc1S(=O)(=O)Nc1cncc(-c2ccc(C#N)cc2)c1 [Example III-33, 5-Chloro-N-(5-(4-cyanophenyl)pyridin-3-yl)-2-methoxybenzenesulfonamide]
< 6.00	COc1ccc(Br)cc1S(=O)(=O)Nc1nnc(C)o1 [Example V-21, 5-Bromo-2-methoxy-N-(5-methyl-[1,3,4]oxadiazol-2-yl)-benzenesulfonamide]
> 7.00	COc1ccc(Br)cc1S(=O)(=O)Nc1cncc(-c2ccsc2)c1 [Example III-77, 5-Bromo-2-methoxy-N-(5-(thiophen-3-yl)pyridin-3-yl)benzenesulfonamide]
> 7.00	COc1ncc(Br)cc1S(=O)(=O)Nc1cnc2ccccc2c1 [Example VI-1, 5-Bromo-2-methoxy-pyridine-3-sulfonic acid quinolin-3-ylamide]
< 6.00	COc1ccc(OC)c(S(=O)(=O)Nc2ccn(C)n2)c1 [Example V-10, 2,5-Dimethoxy-N-(1-methyl-1H-pyrazol-3-yl)-benzenesulfonamide]
> 7.00	CCCOC(=O)c1cncc(NS(=O)(=O)c2cc(Cl)ccc2OC)c1 [Example IV-8, Propyl 5-(5-chloro-2-methoxyphenylsulfonamido)nicotinate]
> 7.00	COc1ccc(OC)c(S(=O)(=O)Nc2cncc(-c3ccc(C#N)cc3)c2)c1 [Example III-31, N-(5-(4-Cyanophenyl)pyridin-3-yl)-2,5-dimethoxybenzenesulfonamide]
< 6.00	COc1ccc(Br)cc1S(=O)(=O)Nc1cc[nH]n1 [Example V-7, 5-Bromo-2-methoxy-N-(1H-pyrazol-3-yl)-benzenesulfonamide]
> 7.00	Cc1ccc(OC(F)(F)F)c(S(=O)(=O)Nc2cnc3ccccc3c2)c1 [Example X-4, 5-Methyl-N-quinolin-3-yl-2-trifluoromethoxy-benzenesulfonamide]
< 6.00	COc1ccc(C(=O)N2CCN(C)CC2)cc1S(=O)(=O)Nc1cccnc1 [Example I-22, 2-Methoxy-5-(4-methyl-piperazine-1-carbonyl)-N-pyridin-3-yl-benzenesulfonamide]
> 7.00	COc1ccc(OC)c(S(=O)(=O)Nc2cncc(C(=O)Oc3ccccc3)c2)c1 [Example IV-15, Phenyl 5-(2,5-dimethoxyphenylsulfonamido)nicotinate]
< 6.00	COc1ccc(OC)c(S(=O)(=O)Nc2ncccn2)c1 [Example V-29, 2,5-Dimethoxy-N-pyrimidin-2-yl-benzenesulfonamide]
< 6.00	CCCCN(c1cnc2ccccc2c1)S(=O)(=O)c1cc(OC)ccc1OC [Example VII-15, 2,5-Dimethoxy-N-butyl-N-(quinolin-3-yl)benzenesulfonamide]
< 6.00	COc1ccc(Br)cc1S(=O)(=O)Nc1cncc(C(=O)N2CCOCC2)c1 [Example IV-24, 5-Bromo-2-methoxy-N-(5-(morpholine-4-carbonyl)pyridin-3-yl)benzenesulfonamide]
< 6.00	CCCN(c1cnc2ccccc2c1)S(=O)(=O)c1cc(Br)ccc1OC [Example VII-3, 5-Bromo-2-methoxy-N-propyl-N-(quinolin-3-yl)benzenesulfonamide]
6.00 to 7.00	COc1ccc(OC)c(S(=O)(=O)Nc2cc(C)no2)c1 [Example V-6, 2,5-Dimethoxy-N-(3-methyl-isoxazol-5-yl)-benzenesulfonamide]
> 7.00	COc1ccc(Cl)cc1S(=O)(=O)Nc1cncc(-c2ccccc2Cl)c1 [Example III-42, 5-Chloro-N-[5-(2-chloro-phenyl)-pyridin-3-yl]-2-methoxy-benzenesulfonamide]

pIC50	SMILES
> 7.00	COc1ccc(Cl)cc1S(=O)(=O)Nc1cncc(-c2cncs2)c1 [Example III-84, 5-Chloro-2-methoxy-N-(5-(thiazol-5-yl)pyridin-3-yl)benzenesulfonamide]
< 6.00	CCNC(=O)c1ccc(OC)c(S(=O)(=O)Nc2cccnc2)c1 [Example I-17, N-Ethyl-4-methoxy-3-(pyridin-3-ylsulfamoyl)-benzamide]
< 6.00	COCCN(c1cnc2ccccc2c1)S(=O)(=O)c1cc(Br)ccc1OC [Example VII-7, 5-Bromo-2-methoxy-N-(2-methoxyethyl)-N-(quinolin-3-yl)benzenesulfonamide]
< 6.00	COc1ccc(C(=O)Nc2ccccc2)cc1S(=O)(=O)Nc1cccnc1 [Example I-19, 4-Methoxy-N-phenyl-3-(pyridin-3-ylsulfamoyl)-benzamide]
> 7.00	Cn1cc(-c2cncc(NS(=O)(=O)c3cc(Br)ccc3OC(F)(F)F)c2)cn1 [Example XI-31, 5-Bromo-N-(5-(1-methyl-1H-pyrazol-4-yl)pyridin-3-yl)-2-(trifluoromethoxy)benzenesulfonamide]
> 7.00	COc1ccc(Br)cc1S(=O)(=O)Nc1cncc(-c2ccccc2)c1 [Example III-26, 5-Bromo-2-methoxy-N-(5-phenyl-pyridin-3-yl)-benzenesulfonamide]
> 7.00	COc1ccc(Br)cc1S(=O)(=O)Nc1cncc(-c2cccs2)c1 [Example III-74, 5-Bromo-2-methoxy-N-(5-(thiophen-2-yl)pyridin-3-yl)benzenesulfonamide]
< 6.00	COc1ccc(OC)c(S(=O)(=O)Nc2ccc(N)nc2)c1 [Example VIII-4, 2,5-Dimethoxy-N-(6-Amino-pyridin-3-yl)-benzenesulfonamide]
6.00 to 7.00	COc1ccc(OC)c(S(=O)(=O)Nc2cncc(C(N)=O)c2)c1 [Example IV-36, 5-(2,5-Dimethoxyphenylsulfonamido)nicotinamide]
> 7.00	COc1cccc(-c2cncc(NS(=O)(=O)c3cc(Br)ccc3OC)c2)c1 [Example III-47, 5-Bromo-2-methoxy-N-[5-(3-methoxy-phenyl)-pyridin-3-yl]-benzenesulfonamide]
6.00 to 7.00	CCCNC(=O)c1cncc(NS(=O)(=O)c2cc(OC)ccc2OC)c1 [Example IV-38, 5-(2,5-Dimethoxyphenylsulfonamido)-N-propylnicotinamide]
> 7.00	COc1cc(C)ccc1S(=O)(=O)Nc1cnc2ccccc2c1 [Example II-3, 2-Methoxy-4-methyl-N-quinolin-3-yl-benzenesulfonamide]
< 6.00	CNC(=O)c1ccc(OC)c(S(=O)(=O)Nc2cccnc2)c1 [Example I-16, 4-Methoxy-N-methyl-3-(pyridin-3-ylsulfamoyl)-benzamide]
< 6.00	CCN(c1cnc2ccccc2c1)S(=O)(=O)c1cc(Br)ccc1OC [Example VII-2, 5-Bromo-2-methoxy-N-ethyl-N-(quinolin-3-yl)benzenesulfonamide]
< 6.00	COc1ccc(OC)c(S(=O)(=O)Nc2nnc(C)o2)c1 [Example V-22, 2,5-Dimethoxy-N-(5-methyl-[1,3,4]oxadiazol-2-yl)-benzenesulfonamide]
> 7.00	COc1ccc(Br)cc1S(=O)(=O)Nc1cnc2ccc(C(N)=O)cc2c1 [Example IX-6, 3-(5-Bromo-2-methoxy-benzenesulfonylamino)-quinoline-6-carboxylic Acid Amide]
< 6.00	COc1ccc(OC)c(S(=O)(=O)Nc2ccc(N(C)C)nc2)c1 [Example VIII-8, N-(6-(Dimethylamino)pyridin-3-yl)-2,5-dimethoxybenzenesulfonamide]
< 6.00	C#CCN(c1cnc2ccccc2c1)S(=O)(=O)c1cc(Br)ccc1OC [Example VII-11, 5-Bromo-2-methoxy-N-(prop-2-yn-1-yl)-N-(quinolin-3-yl)benzenesulfonamide]

SMILES	pIC50
CCNC(=O)c1cncc(NS(=O)(=O)c2cc(Br)ccc2OC)c1 [Example IV-18, 5-(5-Bromo-2-methoxyphenylsulfonamido)-N-ethylnicotinamide]	6.00 to 7.00
CNC(=O)c1cncc(NS(=O)(=O)c2cc(Br)ccc2OC(F)(F)F)c1 [Example XII-14, 5-(5-Bromo-2-(trifluoromethoxy)phenylsulfonamido)-N-methylnicotinamide]	6.00 to 7.00
COc1ccc(-c2ccccc2)cc1S(=O)(=O)Nc1cccnc1 [Example I-7, 4-Methoxy-biphenyl-3-sulfonic acid pyridin-3-ylamide]	6.00 to 7.00
COc1ccc(Br)cc1S(=O)(=O)Nc1cncc(C(=O)N2CCN(C)CC2)c1 [Example IV-25, 5-Bromo-2-methoxy-N-(5-(4-methylpiperazine-1-carbonyl)pyridin-3-yl)benzenesulfonamide]	6.00 to 7.00
COc1ccc(Br)cc1S(=O)(=O)Nc1cncc(-c2ccccc2C)c1 [Example III-38, 5-Bromo-2-methoxy-N-(5-(o-tolyl)pyridin-3-yl)benzenesulfonamide]	6.00 to 7.00
COc1ccc(OC)c(S(=O)(=O)Nc2cncc(C(=O)N3CCOCC3)c2)c1 [Example IV-43, 2,5-Dimethoxy-N-(5-(morpholine-4-carbonyl)pyridin-3-yl)benzenesulfonamide]	6.00 to 7.00
COc1ccc(Cl)cc1S(=O)(=O)Nc1cncc(-c2ccc(C(F)(F)F)cc2)c1 [Example III-15, 5-Chloro-2-methoxy-N-(5-(4-(trifluoromethyl)phenyl)pyridin-3-yl)benzenesulfonamide]	6.00 to 7.00
COc1ccc(Br)cc1S(=O)(=O)Nc1cncc(-c2ccc(C)cc2)c1 [Example III-11, 5-Bromo-2-methoxy-N-(5-p-tolyl-pyridin-3-yl)-benzenesulfonamide]	6.00 to 7.00
COc1ccc(OC)c(S(=O)(=O)Nc2cnc3ccc(C(=O)NC4CC4)cc3c2)c1 [Example IX-13, 3-(2,5-Dimethoxy-benzenesulfonylamino)-quinoline-6-carboxylic Acid Cyclopropylamide]	6.00 to 7.00
CNC(=O)c1ccc(OC)c(S(=O)(=O)Nc2cnc3ccccc3c2)c1 [Example II-15, 4-Methoxy-N-methyl-3-(quinolin-3-ylsulfamoyl)-benzamide]	> 7.00
